Measurements taken from patent US12539287B2, “L-DOPA microbiome therapy” (Iowa State University Research Foundation, Inc., priority 2018, dated 2026).

Assays:
[1] = Bz 50 mg/kg 3 times/day
Method: Mice were orally administered a single daily dose of 10^9 CFU EcN^2L-DOPA or PBS and also Bz (50 mg/kg) 3 times/day for 1 and 2 days. Plasma samples collected through submandibular sampling prior to EcN^2L-DOPA treatment (serving as baseline), and at 4, 8, 16, 24 and 48 h post-EcN^2L-DOPA and Bz (50 mg/kg) treatment, were assayed for L-DOPA production by HPLC. […] We increased the dose and frequency of Bz because of its short half-life.

[2] = humans; cited from earlier work
[3] = cited from earlier work

| Structure (SMILES) | duration of Bz plasma levels [1] | optimal therapeutic plasma levels [2] | solubility in water [3] |
| --- | --- | --- | --- |
| NC(CO)C(=O)NNCc1ccc(O)c(O)c1O (stereo not drawn) [Bz, benserazide] | up to 30 h |  |  |
| N[C@@H](Cc1ccc(O)c(O)c1)C(=O)O [L-DOPA, (−)-L-a-amino-b-(3,4-dihydroxybenzene)propanoic acid] |  | 300 to 1600 ng/mL | slightly soluble in water |
